Biological target: T1, airway epithelial sodium currents (epithelial sodium channel, ENaC) (Canis lupus familiaris, UniProt A0A8I3MKE6+A0A8I3Q679+Q95165)
T1 construct: endogenous in cells; host or cells: primary canine airway epithelial cells cultured at air-liquid interface, mounted in Ussing chambers
T1 sequence (A0A8I3Q679 1-649): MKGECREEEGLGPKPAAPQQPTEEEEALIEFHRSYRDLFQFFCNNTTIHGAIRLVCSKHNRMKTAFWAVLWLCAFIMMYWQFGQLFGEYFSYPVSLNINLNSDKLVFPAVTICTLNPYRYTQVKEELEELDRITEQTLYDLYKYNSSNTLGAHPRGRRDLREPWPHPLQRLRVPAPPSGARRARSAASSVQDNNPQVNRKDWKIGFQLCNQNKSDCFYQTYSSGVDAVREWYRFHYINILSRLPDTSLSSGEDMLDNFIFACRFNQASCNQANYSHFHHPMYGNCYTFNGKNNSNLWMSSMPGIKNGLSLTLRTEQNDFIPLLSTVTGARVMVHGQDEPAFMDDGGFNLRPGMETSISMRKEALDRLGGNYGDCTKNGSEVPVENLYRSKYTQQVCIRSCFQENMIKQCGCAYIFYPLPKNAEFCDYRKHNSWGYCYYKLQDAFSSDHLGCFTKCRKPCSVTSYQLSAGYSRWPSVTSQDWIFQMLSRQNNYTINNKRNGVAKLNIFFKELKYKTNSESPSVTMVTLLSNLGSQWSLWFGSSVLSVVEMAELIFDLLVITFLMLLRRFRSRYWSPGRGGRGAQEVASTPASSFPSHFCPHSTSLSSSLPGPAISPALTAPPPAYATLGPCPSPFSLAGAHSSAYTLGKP
T1 sequence (Q95165 1-641): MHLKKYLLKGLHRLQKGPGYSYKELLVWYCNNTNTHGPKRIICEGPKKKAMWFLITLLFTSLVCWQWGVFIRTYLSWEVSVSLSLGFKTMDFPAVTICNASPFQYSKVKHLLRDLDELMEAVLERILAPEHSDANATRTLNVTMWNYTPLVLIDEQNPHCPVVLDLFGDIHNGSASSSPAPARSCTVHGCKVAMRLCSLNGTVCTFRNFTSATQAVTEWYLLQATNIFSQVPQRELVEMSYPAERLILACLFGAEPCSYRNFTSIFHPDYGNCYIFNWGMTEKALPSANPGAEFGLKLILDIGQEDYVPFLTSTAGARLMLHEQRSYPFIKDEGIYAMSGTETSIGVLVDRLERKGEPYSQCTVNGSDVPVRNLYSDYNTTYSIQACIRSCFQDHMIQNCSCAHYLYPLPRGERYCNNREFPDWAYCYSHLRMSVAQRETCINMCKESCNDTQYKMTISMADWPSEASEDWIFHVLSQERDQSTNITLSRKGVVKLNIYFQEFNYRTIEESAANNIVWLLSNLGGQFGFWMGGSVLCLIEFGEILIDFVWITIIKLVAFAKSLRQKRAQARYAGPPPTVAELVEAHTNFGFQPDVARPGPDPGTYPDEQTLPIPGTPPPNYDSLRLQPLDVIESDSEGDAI
T1 sequence (A0A8I3MKE6 1-646): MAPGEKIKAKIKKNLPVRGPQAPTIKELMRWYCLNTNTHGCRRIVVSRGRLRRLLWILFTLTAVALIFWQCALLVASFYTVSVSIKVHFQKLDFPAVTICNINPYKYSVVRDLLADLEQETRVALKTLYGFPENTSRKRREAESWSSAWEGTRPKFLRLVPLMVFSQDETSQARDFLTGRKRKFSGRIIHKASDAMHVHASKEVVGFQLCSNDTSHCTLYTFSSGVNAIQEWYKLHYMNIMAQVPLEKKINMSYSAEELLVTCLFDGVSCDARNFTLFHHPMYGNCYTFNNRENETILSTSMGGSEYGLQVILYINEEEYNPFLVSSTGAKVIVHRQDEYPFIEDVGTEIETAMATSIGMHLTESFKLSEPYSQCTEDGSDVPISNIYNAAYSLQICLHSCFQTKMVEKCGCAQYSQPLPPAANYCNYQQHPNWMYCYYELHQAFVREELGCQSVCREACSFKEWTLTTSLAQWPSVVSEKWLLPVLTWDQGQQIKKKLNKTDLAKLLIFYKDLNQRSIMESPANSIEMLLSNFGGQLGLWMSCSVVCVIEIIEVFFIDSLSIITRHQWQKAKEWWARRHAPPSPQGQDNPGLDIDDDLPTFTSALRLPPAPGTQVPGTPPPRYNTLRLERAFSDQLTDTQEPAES
Test: In vitro measure of sodium channel blocking activity (short circuit current, Ussing chambers)
Type: cell-based
Settings: freshly excised cells from canine airways; lumenal drug addition; short circuit current (ISC)
Method: One assay used to assess mechanism of action and/or potency of the compounds of the present invention involves the determination of lumenal drug inhibition of airway epithelial sodium currents measured under short circuit current (ISC) using airway epithelial monolayers mounted in Ussing chambers. Cells obtained from freshly excised human, dog, sheep or rodent airways are seeded onto porous 0.4 micron Snapwell™ Inserts (CoStar), cultured at air-liquid interface (ALI) conditions in hormonally defined media, and assayed for sodium transport activity (ISC) while bathed in Krebs Bicarbonate Ringer (KBR) in Using chambers. All test drug additions are to the lumenal bath with half-log dose addition protocols (from 1×10^−11 M to 3×10^−5 M), and the cumulative change in ISC (inhibition) recorded. […] After the maximal concentration (5×10^−5 M) is administered, the lumenal bath is exchanged three times with fresh drug-free KBR solution, and the resultant ISC measured after each wash for approximately 5 minutes in duration. […] All data from the voltage clamps are collected via a computer interface and analyzed off-line. Dose-effect relationships for all compounds are considered and analyzed by the Prism 3.0 program. IC50 values, maximal effective concentrations, and reversibility are calculated and compared to amiloride and benzamil as positive controls. […]

Compound `N=C(N)NCCCC[C@H](NC[C@H](O)[C@@H](O)[C@H](O)[C@H](O)CO)C(=O)NCCOc1ccc(CCCCNC(=N)NC(=O)c2nc(Cl)c(N)nc2N)cc1` [Compound I, 3,5-diamino-6-chloro-N—(N-(4-(4-(2-((S)-6-guanidino-2-((2S,3R,4R,5R)-2,3,4,5,6-pentahydroxyhexylamino)hexanamido)ethoxy)phenyl)butyl)carbamimidoyl)pyrazine-2-carboxamide] has an IC50 of 13.2 nM.

Source: patent US9856224B2, “Stable sodium channel blockers” (PARION SCIENCES, INC., priority 2014, dated 2018)
